Drawing on patent publication US11780893B2, “Kv1.3 blockers” (Zealand Pharma A/S, priority 2019, dated 2023), this text covers IC50 for eight molecules.

As usually defined, the IC50 is the concentration needed to halve the response being measured.

Bridge positions count the residues as written; N and C are the ends. Square brackets hold non-standard residues; d marks the D form. Peptide text beside a SMILES is read from it. Nle = CCCC[C@H](N)C(=O)O

Rat whole blood, sequence (P15384 whole entry): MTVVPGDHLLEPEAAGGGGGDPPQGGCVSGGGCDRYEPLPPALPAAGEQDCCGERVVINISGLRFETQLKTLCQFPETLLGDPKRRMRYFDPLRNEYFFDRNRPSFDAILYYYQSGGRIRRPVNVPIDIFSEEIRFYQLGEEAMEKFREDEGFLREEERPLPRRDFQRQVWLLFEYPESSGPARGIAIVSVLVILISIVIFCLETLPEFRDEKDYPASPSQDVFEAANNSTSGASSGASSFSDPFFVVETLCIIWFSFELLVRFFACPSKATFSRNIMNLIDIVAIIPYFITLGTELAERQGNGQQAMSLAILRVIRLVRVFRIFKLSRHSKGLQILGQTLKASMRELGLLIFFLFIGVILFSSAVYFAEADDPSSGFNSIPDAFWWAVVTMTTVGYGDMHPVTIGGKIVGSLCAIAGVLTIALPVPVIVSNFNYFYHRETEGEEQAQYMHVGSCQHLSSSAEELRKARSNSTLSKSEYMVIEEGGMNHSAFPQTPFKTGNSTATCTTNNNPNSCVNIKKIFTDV

For one assay, the target named is T1, human Kv1.3 voltage-gated K+ channel (Homo sapiens, UniProt P22001).
T1 construct: host or cells: CHO-DUKX
T1 sequence (P22001 whole entry): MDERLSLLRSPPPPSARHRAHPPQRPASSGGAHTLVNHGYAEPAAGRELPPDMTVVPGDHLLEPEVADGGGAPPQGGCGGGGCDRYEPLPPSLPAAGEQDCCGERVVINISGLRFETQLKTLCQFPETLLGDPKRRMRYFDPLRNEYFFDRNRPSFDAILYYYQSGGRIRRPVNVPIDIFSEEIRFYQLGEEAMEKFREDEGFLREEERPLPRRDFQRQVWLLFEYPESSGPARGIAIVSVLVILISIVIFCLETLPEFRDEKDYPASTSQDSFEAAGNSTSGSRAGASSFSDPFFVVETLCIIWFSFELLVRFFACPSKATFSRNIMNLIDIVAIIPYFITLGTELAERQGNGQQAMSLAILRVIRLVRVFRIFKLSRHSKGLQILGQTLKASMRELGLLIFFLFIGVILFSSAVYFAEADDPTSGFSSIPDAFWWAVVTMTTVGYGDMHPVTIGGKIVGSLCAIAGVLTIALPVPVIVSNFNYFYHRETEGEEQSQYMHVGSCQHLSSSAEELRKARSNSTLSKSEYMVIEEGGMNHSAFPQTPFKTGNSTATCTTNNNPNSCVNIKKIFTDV
Put plainly: cell-based. Conditions: inhibition of thallium flux, CHO-DUKX cells with human Kv1.3; read-out: IC50.
With `CCCC[C@H](NC(=O)[C@@H]1CCCN1)C(=O)N[C@@H](CCC(=O)O)C(=O)N[C@@H](CCCC)C(=O)N[C@@H](CCCNC(=N)N)C(=O)N[C@H]1CSSC[C@@H]2NC(=O)[C@H](CCCCN)NC(=O)CNC(=O)[C@H](Cc3ccccc3)NC(=O)[C@H]([C@@H](C)CC)NC(=O)[C@H](CO)NC(=O)CNC(=O)[C@H]([C@@H](C)CC)NC(=O)[C@H](C)NC(=O)[C@H](C)NC(=O)[C@H](CC(C)C)NC(=O)[C@@H]3CSSC[C@@H](C(=O)N[C@@H](Cc4ccc(O)cc4)C(=O)N4CCC[C@H]4C(=O)N[C@@H](CCCNC(=N)N)C(=O)N[C@@H](Cc4ccc(O)cc4)C(=O)O)NC(=O)[C@H](CCCCN)NC(=O)[C@H](CSSC[C@H](NC(=O)[C@H](CCC(=O)O)NC(=O)[C@H](C(C)C)NC(=O)[C@H](CO)NC(=O)[C@H](C)NC(=O)[C@H](CO)NC1=O)C(=O)N[C@@H](CCCCN)C(=O)N[C@@H](CCC(N)=O)C(=O)N[C@@H](CCCCN)C(=O)N3)NC(=O)[C@H](CCCCN)NC(=O)[C@H](CCCCN)NC(=O)[C@H](CC(N)=O)NC(=O)[C@H](CCCC)NC2=O` [Compound 123] (H-P[Nle]E[Nle]RCSASVECKQKCLAAIGSIFGKC[Nle]NKKCKCYPRY-OH; disulfide 6-27, 12-32, 16-34), the IC50 came out at 1.04 nM.

Turning to `CCCC[C@H](NC(=O)[C@@H]1CCCN1)C(=O)N[C@@H](CCC(=O)O)C(=O)N[C@@H](CCCC)C(=O)N[C@@H](CCCNC(=N)N)C(=O)N[C@H]1CSSC[C@@H]2NC(=O)[C@H](CCCCN)NC(=O)CNC(=O)[C@H](Cc3ccccc3)NC(=O)[C@H]([C@@H](C)CC)NC(=O)[C@H](CO)NC(=O)CNC(=O)[C@H]([C@@H](C)CC)NC(=O)[C@H](C)NC(=O)[C@H](C)NC(=O)[C@H](CC(C)C)NC(=O)[C@@H]3CSSC[C@@H](C(=O)N[C@@H](Cc4ccc(O)cc4)C(=O)N4CCC[C@H]4C(=O)N[C@@H](CCCNC(=N)N)C(=O)O)NC(=O)[C@H](CCCCN)NC(=O)[C@H](CSSC[C@H](NC(=O)[C@H](CCC(=O)O)NC(=O)[C@H](C(C)C)NC(=O)[C@H](CO)NC(=O)[C@H](C)NC(=O)[C@H](Cc4ccccc4)NC1=O)C(=O)N[C@@H](CCCCN)C(=O)N[C@@H](CCC(N)=O)C(=O)N[C@@H](CCCCN)C(=O)N3)NC(=O)[C@H](CCCCN)NC(=O)[C@H](CCCCN)NC(=O)[C@H](CC(N)=O)NC(=O)[C@H](CCCC)NC2=O` [Compound 143] (H-P[Nle]E[Nle]RCFASVECKQKCLAAIGSIFGKC[Nle]NKKCKCYPR-OH; disulfide 6-27, 12-32, 16-34), the IC50 was found to be 0.316 nM.

Regarding `CCCC[C@H](NC(=O)[C@@H]1CCCN1)C(=O)N[C@@H](CCC(=O)O)C(=O)N[C@@H](CCCC)C(=O)N[C@@H](CCCNC(=N)N)C(=O)N[C@H]1CSSC[C@@H]2NC(=O)[C@H](CCCCN)NC(=O)CNC(=O)[C@H](Cc3ccccc3)NC(=O)[C@H]([C@@H](C)CC)NC(=O)[C@H](CO)NC(=O)CNC(=O)[C@H]([C@@H](C)CC)NC(=O)[C@H](C)NC(=O)[C@H](C)NC(=O)[C@H](CC(C)C)NC(=O)[C@@H]3CSSC[C@@H](C(=O)N[C@@H](Cc4ccc(O)cc4)C(=O)N4CCC[C@H]4C(=O)N[C@@H](CCCNC(=N)N)C(=O)O)NC(=O)[C@H](CCCCN)NC(=O)[C@H](CSSC[C@H](NC(=O)[C@H](CCC(=O)O)NC(=O)[C@H](C(C)C)NC(=O)[C@H](CO)NC(=O)[C@H](CO)NC(=O)[C@H](CO)NC1=O)C(=O)N[C@@H](CCCCN)C(=O)N[C@@H](CCC(N)=O)C(=O)N[C@@H](CCCCN)C(=O)N3)NC(=O)[C@H](CCCCN)NC(=O)[C@H](CCCCN)NC(=O)[C@H](CC(N)=O)NC(=O)[C@H](CCCC)NC2=O` [Compound 135] (H-P[Nle]E[Nle]RCSSSVECKQKCLAAIGSIFGKC[Nle]NKKCKCYPR-OH; disulfide 6-27, 12-32, 16-34), the IC50 was found to be 0.336 nM.

Consider `CCCC[C@H](NC(=O)[C@@H]1CCCN1)C(=O)N[C@@H](CCC(=O)O)C(=O)N[C@@H](CCCC)C(=O)N[C@@H](CCCNC(=N)N)C(=O)N[C@H]1CSSC[C@@H]2NC(=O)[C@H](CCCCN)NC(=O)CNC(=O)[C@H](Cc3ccccc3)NC(=O)[C@H]([C@@H](C)CC)NC(=O)[C@H](CO)NC(=O)CNC(=O)[C@H]([C@@H](C)CC)NC(=O)[C@H](C)NC(=O)[C@H](C)NC(=O)[C@H](CC(C)C)NC(=O)[C@@H]3CSSC[C@@H](C(=O)N[C@@H](Cc4ccc(O)cc4)C(=O)N4CCC[C@H]4C(=O)N[C@@H](CCCNC(=N)N)C(=O)N[C@@H](CCCNC(=N)N)C(=O)N[C@@H](Cc4ccc(O)cc4)C(=O)O)NC(=O)[C@H](CCCCN)NC(=O)[C@H](CSSC[C@H](NC(=O)[C@H](CCC(=O)O)NC(=O)[C@H](C(C)C)NC(=O)[C@H](CO)NC(=O)[C@H](C)NC(=O)[C@H](CO)NC1=O)C(=O)N[C@@H](CCCCN)C(=O)N[C@@H](CCC(N)=O)C(=O)N[C@@H](CCCCN)C(=O)N3)NC(=O)[C@H](CCCCN)NC(=O)[C@H](CCCCN)NC(=O)[C@H](CC(N)=O)NC(=O)[C@H](CCCC)NC2=O` [Compound 134] (H-P[Nle]E[Nle]RCSASVECKQKCLAAIGSIFGKC[Nle]NKKCKCYPRRY-OH; disulfide 6-27, 12-32, 16-34), for which the IC50 stood at 0.21 nM.

`CCCC[C@H](NC(=O)[C@@H]1CCCN1)C(=O)N[C@@H](CCC(=O)O)C(=O)N[C@@H](CCCC)C(=O)N[C@@H](CCCNC(=N)N)C(=O)N[C@H]1CSSC[C@@H]2NC(=O)[C@H](CCCCN)NC(=O)CNC(=O)[C@H](Cc3ccccc3)NC(=O)[C@H]([C@@H](C)CC)NC(=O)[C@H](CO)NC(=O)CNC(=O)[C@H]([C@@H](C)CC)NC(=O)[C@H](C)NC(=O)[C@H](C)NC(=O)[C@H](CC(C)C)NC(=O)[C@@H]3CSSC[C@@H](C(=O)N[C@@H](Cc4ccc(O)cc4)C(=O)N4CCC[C@H]4C(=O)N[C@@H](CCCNC(=N)N)C(=O)O)NC(=O)[C@H](CCCCN)NC(=O)[C@H](CSSC[C@H](NC(=O)[C@H](CCC(=O)O)NC(=O)[C@H](C(C)C)NC(=O)[C@@H]4CCCN4C(=O)[C@H](C)NC(=O)[C@H](CO)NC1=O)C(=O)N[C@@H](CCCCN)C(=O)N[C@@H](CCC(N)=O)C(=O)N[C@@H](CCCCN)C(=O)N3)NC(=O)[C@H](CCCCN)NC(=O)[C@H](CCCCN)NC(=O)[C@H](CC(N)=O)NC(=O)[C@H](CCCC)NC2=O` [Compound 137] (H-P[Nle]E[Nle]RCSAPVECKQKCLAAIGSIFGKC[Nle]NKKCKCYPR-OH; disulfide 6-27, 12-32, 16-34): the IC50 was 0.333 nM.

Take `CCCC[C@H](NC(=O)[C@@H]1CCCN1)C(=O)N[C@@H](CCC(=O)O)C(=O)N[C@@H](CCCC)C(=O)N[C@@H](CCCNC(=N)N)C(=O)N[C@H]1CSSC[C@@H]2NC(=O)[C@H](CCCCN)NC(=O)CNC(=O)[C@H](Cc3ccccc3)NC(=O)[C@H]([C@@H](C)CC)NC(=O)[C@H](CO)NC(=O)CNC(=O)[C@H]([C@@H](C)CC)NC(=O)[C@H](C)NC(=O)[C@H](C)NC(=O)[C@H](CC(C)C)NC(=O)[C@@H]3CSSC[C@@H](C(=O)N[C@@H](Cc4ccc(O)cc4)C(=O)N4CCC[C@H]4C(=O)N[C@@H](CCCNC(=N)N)C(=O)N[C@@H](CCCNC(=N)N)C(=O)O)NC(=O)[C@H](CCCCN)NC(=O)[C@H](CSSC[C@H](NC(=O)[C@H](CCC(=O)O)NC(=O)[C@H](C(C)C)NC(=O)[C@H](CO)NC(=O)[C@H](C)NC(=O)[C@H](CO)NC1=O)C(=O)N[C@@H](CCCCN)C(=O)N[C@@H](CCC(N)=O)C(=O)N[C@@H](CCCCN)C(=O)N3)NC(=O)[C@H](CCCCN)NC(=O)[C@H](CCCCN)NC(=O)[C@H](CC(N)=O)NC(=O)[C@H](CCCC)NC2=O` [Compound 122] (H-P[Nle]E[Nle]RCSASVECKQKCLAAIGSIFGKC[Nle]NKKCKCYPRR-OH; disulfide 6-27, 12-32, 16-34): the IC50 is 0.226 nM.

For the molecule `CCCC[C@H](NC(=O)[C@@H]1CCCN1)C(=O)N[C@@H](CCC(=O)O)C(=O)N[C@@H](CCCC)C(=O)N[C@@H](CCCNC(=N)N)C(=O)N[C@H]1CSSC[C@@H]2NC(=O)[C@H](CCCCN)NC(=O)CNC(=O)[C@H](Cc3ccccc3)NC(=O)[C@H]([C@@H](C)CC)NC(=O)[C@H](CO)NC(=O)CNC(=O)[C@H]([C@@H](C)CC)NC(=O)[C@H](C)NC(=O)[C@H](C)NC(=O)[C@H](CC(C)C)NC(=O)[C@@H]3CSSC[C@@H](C(=O)N[C@@H](Cc4ccc(O)cc4)C(=O)N4CCC[C@H]4C(=O)N[C@@H](CCCNC(=N)N)C(=O)O)NC(=O)[C@H](CCCCN)NC(=O)[C@H](CSSC[C@H](NC(=O)[C@H](CCC(=O)O)NC(=O)[C@H](CCC(N)=O)NC(=O)[C@H](CO)NC(=O)[C@H](C)NC(=O)[C@H](CO)NC1=O)C(=O)N[C@@H](CCCCN)C(=O)N[C@@H](CCC(N)=O)C(=O)N[C@@H](CCCCN)C(=O)N3)NC(=O)[C@H](CCCCN)NC(=O)[C@H](CCCCN)NC(=O)[C@H](CC(N)=O)NC(=O)[C@H](CCCC)NC2=O` [Compound 139] (H-P[Nle]E[Nle]RCSASQECKQKCLAAIGSIFGKC[Nle]NKKCKCYPR-OH; disulfide 6-27, 12-32, 16-34), the IC50 came out at 0.453 nM.

A further assay concerns the target Rat whole blood (Rattus norvegicus, UniProt P15384).
Experiment: not given
Details: not given
Molecule `CCCC[C@H](NC(=O)[C@H](CC(=O)O)NC(=O)[C@H](CCCC)NC(=O)[C@@H](N)CO)C(=O)N[C@@H](CCCNC(=N)N)C(=O)N[C@H]1CSSC[C@@H]2NC(=O)[C@H](CCCCN)NC(=O)CNC(=O)[C@H](Cc3ccccc3)NC(=O)[C@H]([C@@H](C)CC)NC(=O)[C@H](CO)NC(=O)CNC(=O)[C@H]([C@@H](C)CC)NC(=O)[C@H](C)NC(=O)[C@H](CCCCN)NC(=O)[C@H](CC(C)C)NC(=O)[C@@H]3CSSC[C@@H](C(=O)N[C@@H](Cc4ccc(O)cc4)C(=O)N4CCC[C@H]4C(=O)N[C@@H](CCCNC(=N)N)C(N)=O)NC(=O)[C@H](CCCNC(=N)N)NC(=O)[C@H](CSSC[C@H](NC(=O)[C@H](CCC(=O)O)NC(=O)[C@H](C(C)C)NC(=O)[C@H](CO)NC(=O)[C@H](C)NC(=O)[C@H](CO)NC1=O)C(=O)N[C@@H](CCCCN)C(=O)N[C@@H](CCC(N)=O)C(=O)N[C@@H](CCCCN)C(=O)N3)NC(=O)[C@H](CCCCN)NC(=O)[C@H](CCCCN)NC(=O)[C@H](CC(N)=O)NC(=O)[C@H](CCSC)NC2=O` [Compound 75] returned an IC50 not above 1 nM.
